“Also recorded” adds a separate entry of the source.
Tests used:
[1] = test system: Arabidopsis thaliana seedlings; assay: Arabidopsis root growth inhibition in growth media; format: in vivo; details: for relative toxicity of the D, L and DL forms: Arabidopsis thaliana seedlings
[2] = test system: lettuce seedlings (Lactuca sativa L.); assay: Petri-dish bioassay, radicle elongation in lettuce seedlings; format: in vivo; details: lettuce seedlings

Compound	toxicity of the three forms at 40 μM [1]	relative toxicity of the D, L and DL forms [1]	further results
N[C@@H](Cc1ccccc1)C(=O)O [phenylalanine, reference compound]	–	–	root growth restored by addition of phenylalanine ([1]; root growth inhibition initiated by m-tyrosine): 80 % of the control levels
N[C@H](Cc1cccc(O)c1)C(=O)O [D-m-tyrosine]	same level of toxicity	less toxic at low concentrations	–
N[C@@H](Cc1cccc(O)c1)C(=O)O [L-m-tyrosine, L-3′-hydroxyphenylalanine]	same level of toxicity	roughly equal toxicity	–
O=C(O)C(=O)Cc1cccc(O)c1 [m-hydroxyphenylpyruvic acid]	–	–	toxicity compared with m-tyrosine ([1]; Arabidopsis root growth): as toxic as m-tyrosine; root growth of Arabidopsis when phenylalanine is added to the media ([1]; in vivo): not rescued
N[C@@H](Cc1ccc(O)cc1)C(=O)O [p-tyrosine, tyrosine]	–	–	phytotoxicity [2]: no toxicity; also recorded: not phytotoxic; rescue of root growth inhibition initiated by 3 μM of m-tyrosine ([1]; concentrations up to 1 mM): did not rescue
NC(Cc1cccc(O)c1)C(=O)O (stereo not drawn) [DL m-tyrosine]	same level of toxicity	roughly equal toxicity	–
N[C@@H](Cc1ccccc1O)C(=O)O [o-tyrosine, 2′-hydroxyphenylalanine]	–	–	phytotoxicity [2]: no toxicity; also recorded: not phytotoxic; also recorded: devoid of herbicidal activity
